In patent US20200237852A1, “Small Molecule Enhancers of Paneth Cell Function and Differentiation” (Massachusetts Institute of Technology, priority 2019, published 2020):

Columns and labels:
Assay type in all cases: cell-based, C57BL/6 mice
[1] = test system: organoids differentiated under ENR+CV, ENR+CD, or ENR; assay: Western blotting for LYZ in organoids; details: six days in ENR+CV
Description: ISC-enriched organoids cultured in 3D Matrigel with ENRCV media were passaged to 24-well plate in 3D Matrigel with ENRCV. At day zero, media were replaced to ENR or ENRCD with or without indicated compounds, and media were replaced every other day. At day six, cells were harvested from Matrigel by mechanical disruption and suspended in basal media. Cell pellets were lysed with Pierce® IP lysis buffer (ThermoFisher, 87787) containing Halt™ Protease Inhibitor Cocktail, EDTA-Free (ThermoFisher, 87785) after 3-minute centrifuge at 300×g at 4° C. Cell extracts were resolved by NuPAGE® SDS-PAGE Gel system (ThermoFisher) and electroblotted onto polyvinylidene difluoride membranes using Criterion™ Blotter (Biorad). The membranes were blocked with 2% Blotting-Grade Blocker (Biorad, 1706404) in TBS-T (50 mM Tris-HCl, 150 mM NaCl, and 0.1% Tween 20, pH 8.0) and then probed with appropriate antibodies. Detection was performed using ECL Select™ Western Blotting Detection Reagent (Amersham, 45-000-999) and ImageQuant LAS4000 (GE Healthcare).

[2] = test system: ENR+CD and ENR organoid populations; assay: Population RNA-seq of organoids; details: 3 days of treatment, all media conditions controlled, FDR<0.01
Description: To further assess the potential interaction of Wnt agonist CHIR99021 (C) and Notch inhibitor DAPT (D) with XPO1 inhibitors, we carried out an experiment where we assessed bulk organoid population transcriptomes (with RNA-seq) from multiple variations on growth media, XPO1 inhibitor, and duration of treatment (FIG. 12A). To characterize the resulting cell phenotypes, we used aggregate scores of geneset enrichment (based on module scoring as implemented in^7) from the in vivo Paneth and related enteroendocrine cell populations (genesets taken from^6). We see that again for both ENR+CD treated (FIG. 12B) and ENR treated (FIG. 12C) organoid populations, XPO1 inhibition drives enrichment in Paneth cell defining genes, principally at 3 days of treatment. […]
Population RNA-seq was performed using a derivative of the Smart-Seq2 protocol for single cells^1,2. […] Libraries were pooled post-Nextera and cleaned using Agencourt AMPure SPRI beads with successive 0.7× and 0.8× ratio SPRIs and sequenced with an Illumina 75 Cycle NextSeq500/550v2 kit (Illumina FC-404-2005) with loading density at 2.2 pM, with paired end 35 cycle read structure. Samples were sequenced at an average read depth of 8.44 million reads per sample and a total of 96 samples. […]

ENR+CD organoids = assay: Flow cytometry analysis, 3D culture, XPO1 inhibitors; details: 6-day ENR+CD organoids
Method: ISC-enriched organoids cultured in 3D Matrigel with ENRCV media were passaged to 24-well plate in 3D Matrigel with ENRCV. At day zero, media were replaced to ENRCD with or without indicated compounds, and media were replaced every other day. At day six, cells were washed with basal media, and then harvested from Matrigel by mechanical disruption in TrypLE Express (ThermoFisher, 12605010) to remove Matrigel and dissociate organoids to single cells. After vigorous pipetting and incubation at 37° C. for 20 min, dissociated organoids were strained through a 35 μm cell strainer into a tube (Falcon, 352235). The cell filtrate was centrifuged again at 300×g for 3 min at 4° C. to pellet the cells. Cell pellets were resuspended in FACS buffer (2% FBS in PBS), and then transferred to an ultra low-bind 96-well plate (Corning, 7007). Cells were stained with Zombie-violet viability dye (BioLegend, 423107) at 100× for viability staining and/or antibody staining solution. FITC-conjugated antibody for lysozyme (Dako, […]) and APC-conjugated antibody for CD24 (BioLegend, 138505) were used at 100× dilution. Flow cytometry was performed using an LSR Fortessa (BD; Koch Institute Flow Cytometry Core at MIT). The data were analyzed using FlowJo v10 software.

[3] = test system: ISC-enriched organoids in ENR+CD; assay: 384-well secondary screen in ENR+CD, ATP assay; details: 100 nM
Description: We again assessed treatment effect size with replicate SSMD (using a difference between well replicates and median assay value for all same-plate control wells—see Materials and Methods, High-throughput screening: 384-well secondary screen format and early vs. full treatment analysis) and hits were considered statistically validated by an SSMD greater than the false-positive-derived cutoffs (βα1=0.89 for 8 replicates with alpha=0.05; see Materials and Methods, High-throughput screening: 384-well secondary screen format and early vs. full treatment analysis) for both LYZ.NS and LYZ.S assays (FIG. 7A). […]
For 384-well plate high-throughput screening, ISC-enriched organoids were passaged and split to single cells with TyrpLE (Thermo Fisher Scientific) and cultured for 2-3 days in ENR+CVY prior to transfer to a “2.5-D” 384-well plate culture system. […] On the final wash, pellet was resuspended in basal culture medium, the number of organoids counted, and the cell pellet was resuspended in ENR+CD medium at ˜7 clusters/μL. […] On day six, lysozyme secretion and cell viability were assessed using Lysozyme Assay Kit (EnzChek) and CellTiter-Glo 3D Cell Viability Assay (Promega), respectively, according to the manufacturers' protocols. […]

[4] = test system: ISC-enriched organoids in ENR+CD; assay: 384-well secondary screen in ENR+CD incl. early vs. full treatment, secreted LYZ (LYZ.NS, LYZ.S)
Description: We again assessed treatment effect size with replicate SSMD (using a difference between well replicates and median assay value for all same-plate control wells—see Materials and Methods, High-throughput screening: 384-well secondary screen format and early vs. full treatment analysis) and hits were considered statistically validated by an SSMD greater than the false-positive-derived cutoffs (βα1=0.89 for 8 replicates with alpha=0.05; see Materials and Methods, High-throughput screening: 384-well secondary screen format and early vs. full treatment analysis) for both LYZ.NS and LYZ.S assays (FIG. 7A). Per this new cutoff, 10 dose-treatment combinations corresponding to 7 small molecules were chosen as hits, with every passing dose-treatment having a greater than 0 ATP effect size.
For 384-well plate high-throughput screening, ISC-enriched organoids were passaged and split to single cells with TyrpLE (Thermo Fisher Scientific) and cultured for 2-3 days in ENR+CVY prior to transfer to a “2.5-D” 384-well plate culture system. To prepare for “2.5D” plating, cell-laden Matrigel and media were homogenized via mechanical disruption and centrifuged at 300 g for 3 min at 4° C. Supernatant was removed and the pellet washed and spun in basal culture medium repeatedly until the cloudy Matrigel above the cell pellet was gone. On the final wash, pellet was resuspended in basal culture medium, the number of organoids counted, and the cell pellet was resuspended in ENR+CD medium at ˜7 clusters/μL. 384-well plates were first filled with 10 μL of 70% Matrigel (30% basal media) coating in each well using a Tecan Evo 150 Liquid Handling Deck, and allowed to gel at 37° C. for 5 minutes. Then 30 μL of cell-laden media was plated at the center of each well of 384-well plates with the liquid handler, and the plates were spun down at 50 g for 1 minute to embed organoids on the Matrigel surface. Compound libraries were pinned into prepped cell plates using 50 nL pins into 30 μL media/well. Cells were cultured at 37° C. with 5% CO2 for six days in ENR+CD medium supplemented with the tested compounds with a media change at three days. On day six, lysozyme secretion and cell viability were assessed using Lysozyme Assay Kit (EnzChek) and CellTiter-Glo 3D Cell Viability Assay (Promega), respectively, according to the manufacturers' protocols. Briefly, screen plates were washed 3× with FluoroBrite basal media (2 mM GlutaMAX and 10 mM HEPES in FluoroBrite DMEM (Thermo Fisher Scientific)) using a BioTek 406 plate washer with 10 min incubations followed by a 1 min centrifugation at 200 g to settle media between washes. After removal of the third wash, 30 μL of non-stimulated FluoroBrite basal media was added to each screen well using a Tecan Evo 150 Liquid Handling Deck from a non-stimulated treatment master plate, and plates were incubated for 30 min at 37° C. After 30 minutes, the top 15 μL of media from each well of the screen plate was transferred to a non-stimulated LYZ assay plate containing 15 μL of 20× DQ LYZ assay working solution using a Tecan Evo 150 Liquid Handling Deck. The non-stimulated LYZ assay plate was covered, shaken for 10 min, incubated for 50 min at 37° C., then fluorescence measured (shake 10 s; […]/518 nm) using a Tecan M1000 Plate Reader. After the media transfer to the non-stimulated LYZ assay plate, the remaining media was removed from the screen plate and 30 μL of Stimulated FluoroBrite basal media (supplemented with 10 μM CCh) was added to each screen well using a Tecan Evo 150 Liquid Handling Deck from a stimulated treatment master plate, and plates were incubated for 30 min at 37° C. After 30 minutes, the top 15 μL of media from each well of the screen plate was transferred to a stimulated LYZ assay plate containing 15 μL of 20× DQ LYZ assay working solution using a Tecan Evo 150 Liquid Handling Deck. […]

[5] = test system: conventional organoid (ENR); assay: 384-well screen in conventional organoid (ENR), secreted LYZ (LYZ.NS, LYZ.S); details: 6-day ENR+treatment, single treatment-dose

Compound | LYZ abundance on a per-mass protein normalized basis (western blot) [1] | identity of the majority of significantly up-regulated genes relative to no treatment (DESeq2) [2] | Paneth cell representation by flow cytometry (ENR+CD organoids) | ATP alone, early versus full treatment [3] | validation in secondary screen (SSMD above cutoff for both LYZ.NS and LYZ.S) ([4]; 6-day ENR+CD+treatment vs ENR+CD+DMSO, cutoff 0.89, 8 replicates) | LYZ.NS/ATP, early versus full treatment ([4]; ENR+CD, 100 nM) | LYZ.S/ATP, early versus full treatment ([4]; ENR+CD, 100 nM) | improvement in function, early (first 3 days) versus full 6-day treatment, LYZ.NS and LYZ.S assays ([4]; ENR+CD, maximal validated dose) | LYZ.NS reading versus ENR+DMSO [5]
NC(=O)/C(=C/n1cnc(-c2cc(C(F)(F)F)cc(C(F)(F)F)c2)n1)c1cncnc1 [KPT-8602] | appreciably increase LYZ abundance | known Paneth cell lineage-defining genes | statistically significant increases in Paneth cell representation | – | – | – | – | – | –
Cc1[nH]c(/C=C2\C(=O)Nc3ccc(S(=O)(=O)Cc4c(Cl)cccc4Cl)cc32)c(C)c1C(=O)N1CCC[C@@H]1CN1CCCC1 [PHA-665752] | – | – | – | no difference in ATP alone | multiple validated doses | significant difference (adj. p<0.05) between early and full | suggestive trend | significantly (adj. p<0.05) lower improvement in function with early treatment versus full | significantly lower LYZ.NS
